{"source": "patent US20220128542A1", "about": "“TREATMENT EFFICIENCY EVALUATION” (TX MEDIC AB, priority 2019, published 2022)", "tested_on": "brain of rats subjected to severe traumatic brain injury (sTBI)", "experiment": "HPLC of purine-pyrimidine metabolites (energy state, oxidative/nitrosative stress) in brain after sTBI (Example 1)", "assay_type": "in vivo, rat", "experimental": "They were divided into three groups:\n1) n=6 animals subjected to sTBI, with drug administration after 30 minutes and sacrifice at 2 days post-TBI (Acute phase 1)\n2) n=6 animals subjected to sTBI, with drug administration after 30 minutes and sacrifice at 7 days post-TBI (Acute phase 2).\n3) n=6 animals subjected to sTBI, with drug administration after 3 days and sacrifice at 7 days post-TBI (Chronic phase).\nThe drug treatment was a subcutaneous injection of 0.5 ml of LMW-DS (15 mg/kg) and administered according to the aforementioned schematic protocol.\nAfter the wet weight (w.w.) determination, tissue preparation was affected as previously disclosed (Tavazzi et al., Neurosurgery. 2005; 56: 582-589; Vagnozzi et al., Neurosurgery. 2007; 61: 379-388; Tavazzi et al., Neurosurgery. 2007; 61: 390-395; Amorini et al., J Cell Mol Med. 2017; 21: 530-542.). Briefly, whole brain homogenization was performed with 7 ml of ice-cold, nitrogen-saturated, precipitating solution composed by CH3CN+10 mM KH2PO4, pH 7.40, (3:1; v:v), and using an Ultra-Turrax set at 24,000 rpm/min (Janke & Kunkel, Staufen, Germany). After centrifugation at 20,690×g, for 10 min at 4° C., the clear supernatants were saved, pellets were supplemented with 3 ml of the precipitating solution and homogenized again as described above. A second centrifugation was performed (20,690×g, for 10 min at 4° C.), pellets were saved, supernatants combined with those previously obtained, extracted by vigorous agitation with a double volume of HPLC-grade CHCl3 and centrifuged as above. The upper aqueous phases containing water-soluble low-molecular weight compounds were collected, subjected to chloroform washings for two more times (this procedure allowed the removal of all the organic solvent and of any lipid soluble compound from the buffered tissue extracts), adjusted in volumes with 10 mM KH2PO4, pH 7.40, to have ultimately aqueous 10% tissue homogenates and saved at −80° C. until assayed.\nAliquots of each deproteinized tissue samples were filtered through a 0.45 μm HV Millipore filter and loaded (200 μl) onto a Hypersil C-18, 250×4.6 mm, 5 μm particle size column, provided with its own guard column (Thermo Fisher Scientific, Rodano, Milan, Italy) and connected to an HPLC apparatus consisting of a Surveyor System (Thermo Fisher Scientific, Rodano, Milan, Italy) with a highly sensitive diode array detector (equipped with a 5 cm light path flow cell) and set up between 200 and 300 nm wavelength. Data acquisition and analysis were performed by a PC using the ChromQuest® software package provided by the HPLC manufacturer.\nMetabolites belonging to the purine-pyrimidine profiles (listed below) and related to tissue energy state, mitochondrial function and relative to oxidative-nitrosative stresses were separated, in a single chromatographic run, according to slight modifications of existing ion-pairing HPLC methods (Lazzarino et al., Anal Biochem. 2003; 322: 51-59; Tavazzi et al., Clin Biochem. 2005; 38: 997-1008). Assignment and calculation of the compounds of interest in chromatographic runs of tissue extracts were carried out at the proper wavelengths (206, 234 and 260 nm) by comparing retention times, absorption spectra and areas of peaks with those of peaks of chromatographic runs of freshly-prepared ultra-pure standard mixtures with known concentrations. […]", "key": {"[1]": {"conditions": "Acute phase 1: 15 mg/kg s.c. 30 min post-sTBI, sacrifice day 2"}, "[2]": {"conditions": "Acute phase 2: 15 mg/kg s.c. 30 min post-sTBI, sacrifice day 7"}}, "note": "Marks after values point to notes of the source that are not given here.", "data": [{"substance": "sodium salt of dextran sulfate [LMW-DS]", "values": [{"measurement": "MDA levels", "setting": "15 mg/kg s.c. after sTBI", "result": "significant reduction"}, {"measurement": "ascorbic acid and GSH levels", "setting": "15 mg/kg s.c. after sTBI", "result": "significant improvement"}, {"measurement": "levels of NAA and its substrates", "setting": "15 mg/kg s.c. after sTBI", "result": "significant improvements"}, {"measurement": "nitrate concentrations", "setting": "15 mg/kg s.c., acute and chronic phases of sTBI", "result": "significantly decreased"}, {"measurement": "ADO brain concentration", "setting": "[1]", "result": "71.67 ± 15.87 nmol/g (w.w.)"}, {"measurement": "ADP brain concentration", "setting": "[1]", "result": "279.34 ± 29.59^b nmol/g (w.w.)"}, {"measurement": "ADP-ribose brain concentration", "setting": "[1]", "result": "137.87 ± 43.18^a nmol/g (w.w.)"}, {"measurement": "AMP brain concentration", "setting": "[1]", "result": "53.61 ± 17.91^a, c, j nmol/g (w.w.)"}, {"measurement": "ATP brain concentration", "setting": "[1]", "result": "1464.25 ± 99.09^a, h nmol/g (w.w.)"}, {"measurement": "CDP brain concentration", "setting": "[1]", "result": "25.53 ± 6.83^a, c nmol/g (w.w.)"}, {"measurement": "CDP choline brain concentration", "setting": "[1]", "result": "10.93 ± 3.22^b, h nmol/g (w.w.)"}, {"measurement": "CTP brain concentration", "setting": "[1]", "result": "18.98 ± 6.58^a, g nmol/g (w.w.)"}, {"measurement": "CoA-SH brain concentration", "setting": "[1]", "result": "21.61 ± 3.42^a, h nmol/g (w.w.)"}, {"measurement": "GDP brain concentration", "setting": "[1]", "result": "158.72 ± 24.57^a nmol/g (w.w.)"}, {"measurement": "GDP glucose brain concentration", "setting": "[1]", "result": "38.71 ± 6.86 nmol/g (w.w.)"}, {"measurement": "GMP brain concentration", "setting": "[1]", "result": "177.00 ± 32.39^a, g nmol/g (w.w.)"}, {"measurement": "GSH brain concentration", "setting": "[1]", "result": "2649.50 ± 397.31^a, d nmol/g (w.w.)"}, {"measurement": "GSSG brain concentration", "setting": "[1]", "result": "185.21 ± 48.10 nmol/g (w.w.)"}, {"measurement": "GTP brain concentration", "setting": "[1]", "result": "255.29 ± 45.21^a, g nmol/g (w.w.)"}, {"measurement": "IMP brain concentration", "setting": "[1]", "result": "67.71 ± 10.63^g, i nmol/g (w.w.)"}, {"measurement": "MDA brain concentration", "setting": "[1]", "result": "12.47 ± 2.09^a, c, g nmol/g (w.w.)"}, {"measurement": "NAA brain concentration", "setting": "[1]", "result": "6147.91 ± 989.12^a nmol/g (w.w.)"}, {"measurement": "NADH brain concentration", "setting": "[1]", "result": "15.49 ± 2.05^c, j nmol/g (w.w.)"}, {"measurement": "NADPH brain concentration", "setting": "[1]", "result": "6.22 ± 1.73 nmol/g (w.w.)"}, {"measurement": "NADP^+ brain concentration", "setting": "[1]", "result": "17.95 ± 3.28^a nmol/g (w.w.)"}, {"measurement": "NAD^+ brain concentration", "setting": "[1]", "result": "404.63 ± 51.10^a, c, i nmol/g (w.w.)"}, {"measurement": "NO2 brain concentration", "setting": "[1]", "result": "216.03 ± 41.74^a nmol/g (w.w.)"}, {"measurement": "NO3 brain concentration", "setting": "[1]", "result": "210.64 ± 91.95^d nmol/g (w.w.)"}, {"measurement": "UDP brain concentration", "setting": "[1]", "result": "61.83 ± 10.23^a, g nmol/g (w.w.)"}, {"measurement": "UDP-Gal brain concentration", "setting": "[1]", "result": "119.45 ± 12.50 nmol/g (w.w.)"}, {"measurement": "UDP-GalNac brain concentration", "setting": "[1]", "result": "19.17 ± 4.01^a nmol/g (w.w.)"}, {"measurement": "UDP-Glc brain concentration", "setting": "[1]", "result": "32.14 ± 4.59^g nmol/g (w.w.)"}, {"measurement": "UDP-GlcNac brain concentration", "setting": "[1]", "result": "95.85 ± 19.73^h, i nmol/g (w.w.)"}, {"measurement": "UMP brain concentration", "setting": "[1]", "result": "107.80 ± 21.62 nmol/g (w.w.)"}, {"measurement": "UTP brain concentration", "setting": "[1]", "result": "123.46 ± 15.42^d nmol/g (w.w.)"}, {"measurement": "acetyl-CoA brain concentration", "setting": "[1]", "result": "21.56 ± 6.22^a, g, i nmol/g (w.w.)"}, {"measurement": "adenine brain concentration", "setting": "[1]", "result": "44.82 ± 6.31^a, d, g nmol/g (w.w.)"}, {"measurement": "ascorbic acid brain concentration", "setting": "[1]", "result": "3733.10 ± 277.88^a, d nmol/g (w.w.)"}, {"measurement": "creatinine brain concentration", "setting": "[1]", "result": "24.55 ± 3.20^b, g, i nmol/g (w.w.)"}, {"measurement": "cytidine brain concentration", "setting": "[1]", "result": "15.40 ± 3.04 nmol/g (w.w.)"}, {"measurement": "cytosine brain concentration", "setting": "[1]", "result": "17.69 ± 2.50^b, d nmol/g (w.w.)"}, {"measurement": "guanine brain concentration", "setting": "[1]", "result": "4.80 ± 1.24^b nmol/g (w.w.)"}, {"measurement": "guanosine brain concentration", "setting": "[1]", "result": "20.71 ± 5.66 nmol/g (w.w.)"}, {"measurement": "hypoxanthine brain concentration", "setting": "[1]", "result": "14.47 ± 2.87^a nmol/g (w.w.)"}, {"measurement": "inosine brain concentration", "setting": "[1]", "result": "92.55 ± 31.20^c nmol/g (w.w.)"}, {"measurement": "malonyl-CoA brain concentration", "setting": "[1]", "result": "12.33 ± 1.82^b nmol/g (w.w.)"}, {"measurement": "orotic acid brain concentration", "setting": "[1]", "result": "8.80 ± 2.45^b, h, j nmol/g (w.w.)"}, {"measurement": "thymidine brain concentration", "setting": "[1]", "result": "0.69 ± 0.11 nmol/g (w.w.)"}, {"measurement": "uracil brain concentration", "setting": "[1]", "result": "14.56 ± 5.44 nmol/g (w.w.)"}, {"measurement": "uric acid brain concentration", "setting": "[1]", "result": "23.62 ± 3.77^a, d, h nmol/g (w.w.)"}, {"measurement": "uridine brain concentration", "setting": "[1]", "result": "76.35 ± 12.85^a, c nmol/g (w.w.)"}, {"measurement": "xanthine brain concentration", "setting": "[1]", "result": "9.46 ± 2.34^d nmol/g (w.w.)"}, {"measurement": "β-pseudouridine brain concentration", "setting": "[1]", "result": "6.65 ± 1.309^g, i nmol/g (w.w.)"}, {"measurement": "ADO brain concentration", "setting": "[2]", "result": "82.11 ± 16.51^a nmol/g (w.w.)"}, {"measurement": "ADP brain concentration", "setting": "[2]", "result": "264.07 ± 28.29^b, e, j nmol/g (w.w.)"}, {"measurement": "ADP-ribose brain concentration", "setting": "[2]", "result": "141.96 ± 23.56^a, e, j nmol/g (w.w.)"}, {"measurement": "AMP brain concentration", "setting": "[2]", "result": "57.70 ± 23.01^a, e, j nmol/g (w.w.)"}, {"measurement": "ATP brain concentration", "setting": "[2]", "result": "1632.23 ± 90.07^a, e, j nmol/g (w.w.)"}, {"measurement": "CDP brain concentration", "setting": "[2]", "result": "24.29 ± 6.76^a nmol/g (w.w.)"}, {"measurement": "CDP choline brain concentration", "setting": "[2]", "result": "6.91 ± 1.86 nmol/g (w.w.)"}, {"measurement": "CMP brain concentration", "setting": "[2]", "result": "15.68 ± 2.12^f, j nmol/g (w.w.)"}, {"measurement": "CTP brain concentration", "setting": "[2]", "result": "32.63 ± 3.99^e, i nmol/g (w.w.)"}, {"measurement": "CoA-SH brain concentration", "setting": "[2]", "result": "30.57 ± 6.02^f nmol/g (w.w.)"}, {"measurement": "GDP brain concentration", "setting": "[2]", "result": "126.70 ± 31.35^a, j nmol/g (w.w.)"}, {"measurement": "GDP glucose brain concentration", "setting": "[2]", "result": "49.25 ± 10.33^a nmol/g (w.w.)"}, {"measurement": "GMP brain concentration", "setting": "[2]", "result": "91.47 ± 12.35^e, i nmol/g (w.w.)"}, {"measurement": "GSH brain concentration", "setting": "[2]", "result": "2821.50 ± 242.82^a, e nmol/g (w.w.)"}, {"measurement": "GSSG brain concentration", "setting": "[2]", "result": "219.54 ± 53.36 nmol/g (w.w.)"}, {"measurement": "GTP brain concentration", "setting": "[2]", "result": "336.65 ± 35.18^a, e, j nmol/g (w.w.)"}, {"measurement": "IMP brain concentration", "setting": "[2]", "result": "102.63 ± 22.09^a nmol/g (w.w.)"}, {"measurement": "MDA brain concentration", "setting": "[2]", "result": "4.82 ± 1.73^a, e, i nmol/g (w.w.)"}, {"measurement": "NAA brain concentration", "setting": "[2]", "result": "7262.84 ± 749.73^a, e nmol/g (w.w.)"}, {"measurement": "NADH brain concentration", "setting": "[2]", "result": "13.12 ± 4.19^e nmol/g (w.w.)"}, {"measurement": "NADPH brain concentration", "setting": "[2]", "result": "7.05 ± 2.21 nmol/g (w.w.)"}, {"measurement": "NADP^+ brain concentration", "setting": "[2]", "result": "21.27 ± 4.19^b, e, j nmol/g (w.w.)"}, {"measurement": "NAD^+ brain concentration", "setting": "[2]", "result": "401.18 ± 34.53^a, e, i nmol/g (w.w.)"}]}]}
